According to patent US6711436B1, “Compositions, apparatus and methods for facilitating surgical procedures” (priority 1997, dated 2004):
Several values for one entry are separate records, joined by “and”; a condition that tells them apart may be missing. Equal entries are not always repeated.

Test system: heart
Assay: In vivo swine study of carbachol alone vs carbachol plus propranolol, intracoronary, to induce ventricular asystole
Details: individual swine
Description: Eleven male crossbred swine weighing 20-25 kg were studied, eight of which received carbachol alone and three of which received carbachol plus propranolol. The swine were sedated using 10 mg/kg IV ketamine. After 20 minutes, the animals were induced with 10 mg/kg IV thiopental sodium and orotracheally intubated. The proper anesthetic plane was maintained with 1% Isoflurane. Periodic arterial blood gas samples were obtained to guide ventilator management. The electrocardiograph was continuously monitored. Through a 7 Fr sheath in the left femoral artery, arterial blood samples were obtained and a micromanometer was inserted to monitor central aortic blood pressure (Millar Instruments, Inc., Houston, Tex.). The heart was exposed through a median sternotomy and suspended in a pericardial cradle. Two temporary epicardial pacing wires were affixed to the right ventricle and connected to an external pacemaker (Medtronic, Inc., Minneapolis, Minn.). The pacemaker was modified to permit deactuation by means of depressing a foot pedal. Through the femoral sheath, an AR-1 guide (Cordis Corp., Miami Lakes, Fla.) was placed into the right coronary artery. An 0.014-inch floppy guide wire was then advanced into the right coronary artery to the level of the posterior descending coronary artery. The AR-1 guide was removed and a 2.5 Fr Tracker (Cordis Corp., Miami Lakes, Fla.) catheter was inserted over the guide wire. Using dye injection, the catheter was positioned just proximal to the take-off of the atrioventricular node artery. Carbachol (Sigma St. Louis, Mo.) solution was prepared the day of the experiment and infused at a constant rate using a Harvard pump.
Animals received either carbachol alone or carbachol in combination with propranolol (Inderal®, Wyeth Ayerst, Philadelphia, Pa.). All animals were instrumented and allowed 10 minutes of hemodynamic stability. Before carbachol was administered, each subject received a 500 ml IV bolus of 0.9% sodium chloride.
In the animals receiving carbachol plus propranolol, a 1 mg dose of propranolol (0.04-0.05 mg/kg) was administered through the Tracker catheter. Carbachol was then administered as a 0.5 mg intracoronary bolus (0.02 mg/kg) followed by a constant infusion. […] After carbachol-mediated ventricular asystole was observed, the heart was paced at 100 beats/minute. […] The systolic blood pressure (SBP), diastolic blood pressure (DBP), and […] arterial pressure (MAP) were recorded every five minutes. The duration of ventricular asystole, defined in this example as a heart rate less than twelve beats per minute, was recorded. […] After 75 minutes, the carbachol infusion was stopped and the time required to return to normal sinus rhythm was recorded.

SMILES: C[N+](C)(C)CCOC(N)=O.[Cl-] [carbachol, carbamyl choline chloride]
- time to NSR (normal sinus rhythm) (after carbachol infusion was stopped (after 75 minutes)): 8 min and 3 min
- duration of ventricular asystole (asystole defined as heart rate less than twelve beats per minute, pacemaker turned off 5 s at 60-second intervals): 87 min and 75 min (2×) and 53 min and 24 min and 76 min (2×) and 47 min
- carbachol dose (infusion rate per body weight) achieving ventricular asystole (intracoronary infusion): 86.0 μg/kg/min and 12.2 μg/kg/min and 9.7 μg/kg/min and 20.9 μg/kg/min and 41.9 μg/kg/min and 10.7 μg/kg/min (2×) and 31.0 μg/kg/min
- infusion rate of carbachol necessary to achieve ventricular asystole (intracoronary infusion, doses increased until ventricular asystole observed, combination arm: 1 mg propranolol then 0.5 mg carbachol bolus before infusion): 1.72 mg/min and 0.44 mg/min (5×) and 0.88 mg/min and 0.62 mg/min
